assay: Evaluation of stability in liver microsome; conditions: mouse liver microsome 0.25 mg/mL, 1 μM test compound, 37° C. for 30 minutes

SMILES	Remaining (%)
CCn1cc(C#Cc2c(C(=O)Nc3ccc(COC)cc3)c3c(N)ncnc3n2C2(C)CC2)cn1 [Example 118, 4-amino-6-((1-ethyl-1H-pyrazol-4-yl)ethynyl)-N-(4-(methoxymethyl)phenyl)-7-(1-methylcyclopropyl)-7H-pyrrolo[2,3-d]pyrimidine-5-carboxamide]	73
COCc1ccc(NC(=O)c2c(C#Cc3cccs3)n(C3(C)CC3)c3ncnc(N)c23)cc1 [Example 119, 4-amino-N-(4-(methoxymethyl)phenyl)-7-(1-methylcyclopropyl)-6-(thiophen-2-ylethynyl)-7H-pyrrolo[2,3-d]pyrimidine-5-carboxamide]	70
COCc1ccc(NC(=O)c2c(C#Cc3ccc(Cl)nc3)n(C3(C)CC3)c3ncnc(N)c23)cc1 [Example 120, 4-amino-6-((6-chloropyridin-3-yl)ethynyl)-N-(4-(methoxymethyl)phenyl)-7-(1-methylcyclopropyl)-7H-pyrrolo[2,3-d]pyrimidine-5-carboxamide]	72
COCc1ccc(NC(=O)c2c(C#Cc3c[nH]c4ccccc34)n(C3(C)CC3)c3ncnc(N)c23)cc1 [Example 121, 6-((1H-indol-3-yl)ethynyl)-4-amino-N-(4-(methoxymethyl)phenyl)-7-(1-methylcyclopropyl)-7H-pyrrolo[2,3-d]pyrimidine-5-carboxamide]	74
COCc1ccc(NC(=O)c2c(C#Cc3cccc(NCc4ccncc4)c3)n(C3(C)CC3)c3ncnc(N)c23)cc1 [Example 122, 4-amino-N-(4-(methoxymethyl)phenyl)-7-(1-methylcyclopropyl)-6-((3-((pyridin-4-ylmethyl)amino)phenyl)ethynyl)-7H-pyrrolo[2,3-d]pyrimidine-5-carboxamide]	62
COCc1ccc(NC(=O)c2c(C#CCC3(O)COC3)n(C3(C)CC3)c3ncnc(N)c23)cc1 [Example 125, 4-amino-6-(3-(3-hydroxyoxetan-3-yl)prop-1-yn-1-yl)-N-(4-(methoxymethyl)phenyl)-7-(1-methylcyclopropyl)-7H-pyrrolo[2,3-d]pyrimidine-5-carboxamide]	74
COCc1ccc(NC(=O)c2c(C#Cc3csc(C)n3)n(C3(C)CC3)c3ncnc(N)c23)cc1 [Example 126, 4-amino-N-(4-(methoxymethyl)phenyl)-7-(1-methylcyclopropyl)-6-((2-methylthiazol-4-yl)ethynyl)-7H-pyrrolo[2,3-d]pyrimidine-5-carboxamide]	69
CCOc1c(C(=O)Nc2ccc(COC)cc2)c2c(N)ncnc2n1C1(C)CC1 [Example 127, 4-amino-6-ethoxy-N-(4-(methoxymethyl)phenyl)-7-(1-methylcyclopropyl)-7H-pyrrolo[2,3-d]pyrimidine-5-carboxamide]	70
COCc1ccc(NC(=O)c2c(C#Cc3cnc4[nH]ccc4c3)n(C3(C)CC3)c3ncnc(N)c23)cc1 [Example 128, 6-((1H-pyrrolo[2,3-b]pyridine-5-yl)ethynyl)-4-amino-N-(4-(methoxymethyl)phenyl)-7-(1-methylcyclopropyl)-7H-pyrrolo[2,3-d]pyrimidine-5-carboxamide]	82
COCc1ccc(NC(=O)c2c(C#Cc3ccn[nH]3)n(C3(C)CC3)c3ncnc(N)c23)cc1 [Example 129, 6-((1H-pyrazol-5-yl)ethynyl)-4-amino-N-(4-(methoxymethyl)phenyl)-7-(1-methylcyclopropyl)-7H-pyrrolo[2,3-d]pyrimidine-5-carboxamide]	54
COCc1ccc(NC(=O)c2c(C#Cc3cccc(F)c3)n(C3(C)CC3)c3ncnc(N)c23)cc1 [Example 130, 4-amino-6-((3-fluorophenyl)ethynyl)-N-(4-(methoxymethyl)phenyl)-7-(1-methylcyclopropyl)-7H-pyrrolo[2,3-d]pyrimidine-5-carboxamide]	84
COCc1ccc(NC(=O)c2c(C#CC3(O)CCCC3)n(C3(C)CC3)c3ncnc(N)c23)cc1 [Example 131, 4-amino-6-((1-hydroxycyclopentyl)ethynyl)-N-(4-(methoxymethyl)phenyl)-7-(1-methylcyclopropyl)-7H-pyrrolo[2,3-d]pyrimidine-5-carboxamide]	55
COCc1ccc(NC(=O)c2c(C#CCN3CCN(C)CC3)n(C3(C)CC3)c3ncnc(N)c23)cc1 [Example 132, 4-amino-N-(4-(methoxymethyl)phenyl)-7-(1methylcyclopropyl)-6-(3-(4-methylpiperazin-1-yl)prop-1-yn-1-yl)-7H-pyrrolo[2,3-d]pyrimidine-5-carboxamide]	77
COCc1ccc(NC(=O)c2c(SC)n(C3(C)CC3)c3ncnc(N)c23)cc1 [Example 133, 4-amino-N-(4-methoxymethyl)phenyl-7-(1-methylcyclopropyl)-6-(methylthio)-7H-pyrrolo[2,3-d]pyrimidine-5-carboxamide]	70
COCc1ccc(NC(=O)c2c(C#CC(C)(C)N)n(C3(C)CC3)c3ncnc(N)c23)cc1 [Example 134, 4-amino-6-(3-amino-3-methylbut-1-yn-1-yl)-N-(4-(methoxymethyl)phenyl)-7-(1-methylcyclopropyl)-7H-pyrrolo[2,3-d]pyrimidine-5-carboxamide]	79
COCc1ccc(NC(=O)c2c(OCC3CCCO3)n(C3(C)CC3)c3ncnc(N)c23)cc1 (stereo not drawn) [Example 135, 4-amino-N-(4-(methoxymethyl)phenyl)-7-(1-methylcyclopropyl)-6-((tetrahydrofuran-2-yl)methoxy)-7H-pyrrolo[2,3-d]pyrimidine-5-carboxamide]	67
COCc1ccc(NC(=O)c2c(OCCN3CCCC3=O)n(C3(C)CC3)c3ncnc(N)c23)cc1 [Example 136, 4-amino-N-(4-(methoxymethyl)phenyl)-7-(1-methylcyclopropyl)-6-(2-(2-oxopyrrolidin-1-yl)ethoxy)-7H-pyrrolo[2,3-d]pyrimidine-5-carboxamide]	78
COCc1ccc(NC(=O)c2c(OCC(C)(C)OC)n(C3(C)CC3)c3ncnc(N)c23)cc1 [Example 137, 4-amino-6-(2-methoxy-2-methylpropoxy)-N-(4-(methoxymethyl)phenyl)-7-(1-methylcyclopropyl)-7H-pyrrolo[2,3-d]pyrimidine-5-carboxamide]	53
COCc1ccc(NC(=O)c2c(OCC3CCCC3)n(C3(C)CC3)c3ncnc(N)c23)cc1 [Example 140, 4-amino-6-(cyclopentylmethoxy)-N-(4-(methoxymethyl)phenyl)-7-(1-methylcyclopropyl)-7H-pyrrolo[2,3-d]pyrimidine-5-carboxamide]	52
COCc1ccc(NC(=O)c2c(OCC3CCOCC3)n(C3(C)CC3)c3ncnc(N)c23)cc1 [Example 141, 4-amino-N-(4-(methoxymethyl)phenyl)-7-(1-methylcyclopropyl)-6-((tetrahydro-2H-pyran-4-yl)methoxy)-7H-pyrrolo[2,3-d]pyrimidine-5-carboxamide]	68
COCc1ccc(NC(=O)c2c(C#CCC3(O)CCOCC3)n(C3(C)CC3)c3ncnc(N)c23)cc1 [Example 143, 4-amino-6-(3-(4-hydroxytetrahydro-2H-pyran-4-yl)prop-1-yn-1-yl)-N-(4-(methoxymethyl)phenyl)-7-(1-methylcyclopropyl)-7H-pyrrolo[2,3-d]pyrimidine-5-carboxamide]	68

Source: patent US10155768B2, “Fused pyrimidine compound or salt thereof” (TAIHO PHARMACEUTICAL CO., LTD., priority 2016, dated 2018)
